Reference: patent US20200368315A1, “ANTIMICROBIAL PEPTIDES AND ADMIXTURES THEREOF SHOWING ANTIMICROBIAL ACTIVITY AGAINST GRAM-NEGATIVE PATHOGENS” (priority 2017, published 2020)
≈ marks a conversion by molar mass, not a printed value. Read-outs that look alike come from different tables or passages of the source. Non-standard residues stand in square brackets, D forms with d. Residues, ends and D or L forms follow the SMILES beside them. No end group written: not given here.

Key:
A. baumannii LMG01041 [1] = test: microbe, parasite or virus in culture; format: cell-based, Acinetobacter baumannii
Protocol: (§1) Escherichia coli, Klebsiella pneumoniae, Pseudomonas aeruginosa, Acinetobacter baumannii, Enterobacter aerogenes were grown in Luria-Bertani (LB) broth shaken (200 rpm) or on LB agar at 37° C. […] MICs tests were performed in duplicate by a liquid growth inhibition microdilution assays in sterilized polypropylene microtiter plates according to Wiegand and […] [27]. […] The suspension was diluted in a ratio of 1:100 using Mueller Hinton Broth (MHB) and the final inoculum is 5*10^5 CFU/mL. […] The antimicrobials were diluted serially by 1/2 one by one and 50 uL diluted bacterial suspension were added to each well to make the final volume to be 100 uL. Growth control was accomplished by remove 10 uL from well 11 and dilute 1000 times to plate 1/10 suspension on the solid medium. […] The number of colonies on the control agar plate should be around 50 to ensure the concentration of the inoculum and the effectiveness of the experiment. The lowest concentration of the antimicrobials that inhibits visible growth of the indicator is identified as MIC.

P. aeruginosa LMG 6395 [2] = test: microbe, parasite or virus in culture; format: cell-based, Pseudomonas aeruginosa
Protocol: as §1

K. pneumoniae LMG20218 [3] = test: microbe, parasite or virus in culture; format: cell-based, Klebsiella pneumoniae
Protocol: as §1

E. aerogenes LMG 02094 [4] = test: microbe, parasite or virus in culture; format: cell-based, Enterobacter aerogenes
Protocol: as §1

E. coli LMG15862 [5] = test: microbe, parasite or virus in culture; format: cell-based, Escherichia coli; details: for MICb (GNP concentration when used alone): L-form GNP, Table 6
Protocol: as §1

E. aerogenes LMG 02094 [6] = system: E. aerogenes LMG 02094
Protocol: (§2) The test of synergistic effect was processed by conducting standard chequerboard broth microdilution assays. […] Row 11 are used as growth control with no peptide was included, while row 12 with MHB medium-only wells was included as a sterility control as referred before. 50 uL fresh bacterial suspension was added to well 1-11 and final volume of each well on the plate is 100 uL.
(§3) The test of synergistic effect was processed as method 1.4.
(§4) To determine whether the combination therapy is additive, synergistic or antagonistic, fractional inhibitory concentration (FIC) indices were calculated. FICI=FICa+FICb=MICac/MICa+MICbc/MICb. The MICa/MICb is the MIC of compound A/B alone. MICac is the MIC of compound A in combination with compound B and MICbc is the MIC of compound B when it was combination with compound A. […]. FICa is FIC of compound A while FICb is FIC of compound B. The FICI is interpreted as follows: synergistic, FICI≤0.5; additive, 0.5<FICI<1; indifferent, 1<FICI<2; antagonistic, FICI>2.

K. pneumoniae LMG20218 [7] = system: K. pneumoniae LMG20218
Protocol: as §2, §3, §4

P. aeruginosa LMG 6395 [8] = system: P. aeruginosa LMG 6395
Protocol: as §2, §3, §4

A. baumannii LMG01041 [9] = system: A. baumannii LMG01041
Protocol: as §2, §3, §4

E. coli LMG15862 [10] = system: E. coli LMG15862
Protocol: as §2, §3, §4

K. pneumoniae LMG20218 [11] = format: cell-based, Klebsiella pneumoniae
Excerpt: (§5) The test of synergistic effect was processed by conducting standard chequerboard broth microdilution assays. Nisin (Drug X) was loaded two fold serially diluted from row 1 to 10 in X-axis while GNPs (Drug Y) were loaded in eight two fold serially diluted concentrations from line A to H in Y-axis (FIG. 1). The original concentrations of peptides were MICs of each. Row 11 are used as growth control with no peptide was included, while row 12 with MHB medium-only wells was included as a sterility control as referred before. 50 uL fresh bacterial suspension was added to well 1-11 and final volume of each well on the plate is 100 uL.
as §4

P. aeruginosa LMG 6395 [12] = format: cell-based, Pseudomonas aeruginosa
Excerpt: as §5, §4

E. aerogenes LMG 02094 [13] = format: cell-based, Enterobacter aerogenes
Excerpt: as §5, §4

A. baumannii LMG01041 [14] = format: cell-based, Acinetobacter baumannii
Excerpt: as §5, §4

E. coli LMG15862 [15] = format: cell-based, Escherichia coli
Excerpt: as §5, §4

[16] = gene nisA (nisin A mutants); cited from earlier work
[17] = MIC of GNP in combination with vancomycin at the MICac concentration
[18] = MIC of vancomycin in combination with the GNP at the MICbc concentration
[19] = MIC of GNP when used with the MICac concentration of nisin
[20] = MIC of nisin in combination with the GNP at the MICbc concentration

CC[C@@H](C)[C@@H](NC(=O)CN)C(=O)NCC(=O)N[C@H](CCCCN)C(=O)N[C@H](Cc1c[nH]cn1)C(=O)N[C@@H](C(=O)NCC(=O)N[C@H](CCCCN)C(=O)N[C@H](C)C(=O)N[C@H](CC(C)C)C(=O)N[C@H](CCCCN)C(=O)NCC(=O)N[C@H](CC(C)C)C(=O)N[C@H](CCCCN)C(=O)NCC(=O)N[C@H](CC(C)C)C(=O)N[C@H](CC(C)C)C(=O)N[C@H](CCCCN)C(=O)NCC(=O)N[C@H](CC(C)C)C(=O)NCC(=O)N[C@H](CCC(=O)O)C(=O)N[C@H](CS)C(=O)O)C(C)C [GNP-D7] (H-G[dI]G[dK][dH][dV]G[dK][dA][dL][dK]G[dL][dK]G[dL][dL][dK]G[dL]G[dE][dC]-OH; N-terminus and C-terminus assumed)
MICb (MIC of GNP alone) (A. baumannii LMG01041 [1]; D form GNP, A. baumannii LMG01041, Table 9): 2 µM
MIC value (A. baumannii LMG01041 [1]; LMG01041): 2 µM (≈ 4.55 µg/mL)
MICb (MIC of GNP alone) (P. aeruginosa LMG 6395 [2]; D form GNP, P. aeruginosa LMG 6395, Table 9): 4 µM
MIC value (P. aeruginosa LMG 6395 [2]; LMG 6395): 4 µM (≈ 9.11 µg/mL)
MICb (MIC of GNP alone) (K. pneumoniae LMG20218 [3]; D form GNP, K. pneumoniae LMG20218, Table 9): 4 µM
MIC value (K. pneumoniae LMG20218 [3]; LMG20218): 4 µM (≈ 9.11 µg/mL)
MICb (MIC of GNP alone) (E. aerogenes LMG 02094 [4]; D form GNP, E. aerogenes LMG 02094, Table 9): 4 µM
MIC value (E. aerogenes LMG 02094 [4]; LMG 02094): 4 µM (≈ 9.11 µg/mL)
MICb (MIC of GNP alone) (E. coli LMG15862 [5]; D form GNP, E. coli LMG15862, Table 9): 2 µM
MIC value (E. coli LMG15862 [5]; LMG15862): 2 µM (≈ 4.55 µg/mL)

AIVQRIKKWLR-NH2 [GNP8-3]
MICb (E. aerogenes LMG 02094 [6]; MIC of GNP alone): 128 µM
MICbc (E. aerogenes LMG 02094 [6]; [17]): 16 µM
MICac (E. aerogenes LMG 02094 [6]; [18]): 12 µM
MICb (K. pneumoniae LMG20218 [7]; MIC of GNP alone): 24 µM
MICbc (K. pneumoniae LMG20218 [7]; [17]): 3 µM
MICac (K. pneumoniae LMG20218 [7]; [18]): 16 µM
MICb (P. aeruginosa LMG 6395 [8]; MIC of GNP alone): 16 µM
MICbc (P. aeruginosa LMG 6395 [8]; [17]): 8 µM
MICac (P. aeruginosa LMG 6395 [8]; [18]): 4 µM
MICb (A. baumannii LMG01041 [9]; MIC of GNP alone): 128 µM
MICbc (A. baumannii LMG01041 [9]; [17]): 8 µM
MICac (A. baumannii LMG01041 [9]; [18]): 4 µM
MICb (E. coli LMG15862 [10]; MIC of GNP alone): 12 µM
MICbc (E. coli LMG15862 [10]; [17]): 3 µM
MICac (E. coli LMG15862 [10]; [18]): 4 µM
MICb (K. pneumoniae LMG20218 [11]; MIC of GNP alone): 24 µM
MICbc (K. pneumoniae LMG20218 [11]; [19]): 3 µM
MICac (K. pneumoniae LMG20218 [11]; [20]): 1.5 µM
MICb (P. aeruginosa LMG 6395 [12]; MIC of GNP alone): 16 µM
MICbc (P. aeruginosa LMG 6395 [12]; [19]): 8 µM
MICac (P. aeruginosa LMG 6395 [12]; [20]): 4.5 µM
MICb (E. aerogenes LMG 02094 [13]; MIC of GNP alone): 128 µM
MICbc (E. aerogenes LMG 02094 [13]; [19]): 8 µM
MICac (E. aerogenes LMG 02094 [13]; [20]): 4 µM
MICb (A. baumannii LMG01041 [14]; MIC of GNP alone): 128 µM
MICbc (A. baumannii LMG01041 [14]; [19]): 32 µM
MICac (A. baumannii LMG01041 [14]; [20]): 0.375 µM
MICb (E. coli LMG15862 [15]; MIC of GNP alone): 12 µM
MICbc (E. coli LMG15862 [15]; [19]): 1.5 µM
MICac (E. coli LMG15862 [15]; [20]): 1.5 µM

GIGKHVGKALKGLKGLLKGLGEC [GNP-7]
MICb (MIC of GNP alone) (A. baumannii LMG01041 [1]; LMG01041): 2 µM
MICb (MIC of GNP alone) (P. aeruginosa LMG 6395 [2]; LMG 6395): 13 µM
MICb (MIC of GNP alone) (K. pneumoniae LMG20218 [3]; LMG20218): 12 µM
MICb (MIC of GNP alone) (E. aerogenes LMG 02094 [4]; LMG 02094): 8 µM
MICb (GNP concentration when used alone) (E. coli LMG15862 [5]; E. coli LMG15862): 6 µM

GNNRPVYIPQPRPPHPRL [GNP-1]
MICb (MIC of GNP alone) (A. baumannii LMG01041 [1]; LMG01041): >64 µM
MICb (MIC of GNP alone) (P. aeruginosa LMG 6395 [2]; LMG 6395): >64 µM
MICb (MIC of GNP alone) (K. pneumoniae LMG20218 [3]; LMG20218): 5 µM
MICb (MIC of GNP alone) (E. aerogenes LMG 02094 [4]; LMG 02094): 8 µM
MICb (GNP concentration when used alone) (E. coli LMG15862 [5]; E. coli LMG15862): 0.5 µM

K12S (ITSISLCTPGCSTGALMGCNMKTATCHCSIHVSK; cysteine pairing not given here; also: lantibiotic nisin-A; UniProt P13068 24-57, looked up, variant K12S)
Biological activity (relative to the wild type) [16]: Increased (Increased activity, >120% compared to the activity of wild type nisin A/Z)

K12T (ITSISLCTPGCTTGALMGCNMKTATCHCSIHVSK; cysteine pairing not given here; also: lantibiotic nisin-A; UniProt P13068 24-57, looked up, variant K12T)
Biological activity (relative to the wild type) [16]: Increased (Increased activity, >120% compared to the activity of wild type nisin A/Z)
